Experimental data reported in ChEMBL document CHEMBL1133376, “Recognition and inhibition of HIV integrase by a novel dinucleotide” (Bioorg Med Chem Lett, 2000).

Tests used:
[1] = target: Human immunodeficiency virus type 1 integrase (Human immunodeficiency virus 1) (UniProt Q7ZJM1); assay: Inhibition of strand transfer step useful in the integration of viral DNA into host cell DNA by inhibiting HIV integrase by compound
[2] = target: Human immunodeficiency virus type 1 integrase (Human immunodeficiency virus 1) (UniProt Q7ZJM1); assay: Inhibition of 3' processing step useful in the integration of viral DNA into host cell DNA by inhibiting HIV integrase by compound

Sequence of Human immunodeficiency virus type 1 integrase (Human immunodeficiency virus 1) (Q7ZJM1 as listed by the source): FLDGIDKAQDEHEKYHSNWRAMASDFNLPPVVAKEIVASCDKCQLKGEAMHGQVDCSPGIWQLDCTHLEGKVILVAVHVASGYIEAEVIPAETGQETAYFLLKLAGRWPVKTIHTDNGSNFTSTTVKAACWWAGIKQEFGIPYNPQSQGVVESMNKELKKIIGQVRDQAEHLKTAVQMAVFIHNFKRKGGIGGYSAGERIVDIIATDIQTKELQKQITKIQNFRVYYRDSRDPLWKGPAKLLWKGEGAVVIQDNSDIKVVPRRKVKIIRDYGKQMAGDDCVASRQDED

Row | Inhibitory activity [1] [µM] | Inhibitory activity [2] [µM] | Structure (SMILES)
1 | 200 | 200 | Nc1ccn([C@H]2C[C@H](O)[C@@H](COP(=O)(O)O[C@H]3[C@H](n4cnc5c(N)ncnc54)CO[C@@H]3CO)O2)c(=O)n1
2 | 25 | 19 | Nc1ccn([C@H]2C[C@H](O)[C@@H](COP(=O)(O)O[C@H]3[C@H](n4cnc5c(N)ncnc54)CO[C@@H]3COP(=O)(O)O)O2)c(=O)n1
3 | 3 | 6 | Nc1ccn([C@H]2C[C@H](O)[C@@H](COP(=O)(O)O[C@H]3C[C@H](n4cnc5c(N)ncnc54)O[C@@H]3COP(=O)(O)O)O2)c(=O)n1

Second part, the compound before the results:

Row | Structure (SMILES) | Inhibitory activity [1] [µM] | Inhibitory activity [2] [µM]
4 | Nc1ncnc2c1ncn2C1COC(COP(=O)(O)O)C1O (configuration not stated) | > 200 | > 200
5 | Cc1cn([C@H]2C[C@H](N=[N+]=[N-])[C@@H](COP(=O)(O)O)O2)c(=O)[nH]c1=O | 140 | > 110
6 | Nc1ccn(C2CCC(COP(=O)(O)O)O2)c(=O)n1 (configuration not stated) | 45 | 50
